The subject of data set [1] is HCT116, DLD1 and SW480. Put plainly: Synergy score screen: chemotherapeutic agents in low serine, glycine, cysteine medium, cell counts.
Method: Human cell lines HCT116, DLD1 and SW480 were seeded into 96-well plates either in complete medium containing serine, glycine and cysteine at 100 uM, with all other amino acids present, or low serine, glycine, cysteine (17-23 uM) medium with all other amino acids present. After 6 hours the stated chemotherapeutic agents were added (at doses of 0.01, 0.1 and 1 uM) to the wells and cells were incubated for a further 48 hours. After this time cells were formalin fixed and stained with a fluorescent nuclear stain for cell counting on an automated (Operetta) plate reader.
Data set [2] has as its system VillincreER; APCfl/fl organoids. Put plainly: Organoid malondialdehyde (MDA) immunostaining (ROS damage). The class given is cell-based, mouse. Here is the method: Organoids were seeded in the stated media with or without metformin/daunorubicin (both from Sigma) and allowed to grow for two days. Images for size quantification (performed using ImageJ software) were taken using a light microscope then organoids were fixed in 4% paraformaldehyde. ROS damage was assessed by immunostaining organoids with Anti-malondialdehyde (MDA) (Abcam, ab6463), with Alexa Fluor 594 secondary antibody (Thermo Fisher Scientific). Images were captured on an Olympus FV1000 inverted laser scanning confocal microscope and MDA staining was quantified using ImageJ software.

Data set [3] deals with intestinal tumour organoids derived from a VillincreER; APCfl/fl mouse. Put plainly: Intestinal tumour organoid growth (diameter) +/− serine and glycine, +/− drug. Format: cell-based. The note with it: two days. Here is the method:
ADF=Advanced DMEM F/12, with 2 mM glutamine, 1% of penicillin/streptomycin solution, 0.1% of AlbuMAX I BSA, 10 mM HEPES (all Gibco/Life Technologies). Adenomas were removed from the small intestine of mice and cut into smaller pieces and washed 5 times with ice cold PBS. Pieces were incubated in 5 mM EDTA for 10 min at 4° C. on a roller. Crypts were washed 2 times with ice cold PBS to remove EDTA and incubated in 10× trypsin for 30 min at 37° C. The crypt-enriched supernatant was collected and washed approximately 5 times with 5 ml ADF through mechanical pipetting. Crypts were pelleted via centrifugation at 1,200 rpm for 5 min. Crypts were re-suspended in growth factor reduced matrigel (BD Biosciences) and 20 μl was plated per well in a 12-well plate. Matrigel was allowed to solidify for 30 min in a 37° C. incubator before appropriate ADF was added supplemented with 0.05 μg/ml EGF and 0.1 μg/ml noggin (Total volume per well 1 ml). Crypts were split by harvesting in ice cold PBS and spun down at 600 rpm for 3 min. Supernatant was aspirated and the pellet dissociated with 100 μl ice cold PBS using mechanical pipetting. 5 ml of PBS was added to tube and spun own at 600 rpm for 3 min, repeated until supernatant was clear of debris. The final crypt pellet was re-suspended with growth factor reduced matrigel and plated as before. For serine/glycine starvation, amino acid free Advanced DMEM F/12 (Gibco/Life Technologies) was used to construct assay medium for organoids with or without serine and glycine, containing all other amino acids. […]
Organoids were seeded in the stated media with or without metformin/daunorubicin (both from Sigma) and allowed to grow for two days. Images for size quantification (performed using ImageJ software) were taken using a light microscope then organoids were fixed in 4% paraformaldehyde. ROS damage was assessed by immunostaining organoids with Anti-malondialdehyde (MDA) (Abcam, ab6463), with Alexa Fluor 594 secondary antibody (Thermo Fisher Scientific). […]

Data set [4] has as its system intestinal tumours (APCMin/+).
From the text: (§1) On normal chow, dietary amino acids are derived from whole proteins contained in the raw ingredients (wheat, wheatfeed, barley, de-hulled extracted toasted soya, maize and fish meal), with a small amount of purified lysine added as a supplement. […] “Diet 2-Control” contained all essential amino acids plus serine, glycine, glutamine, arginine, cystine, tyrosine, alanine, proline, glutamate and asparagine; “Diet 2-No Ser, No Gly/Diet 2-SG-free” was the same as Diet 2-Control, but without serine and glycine, with the other amino acid levels increased proportionally to achieve the same total amino acid content. “Diet 2” formulations were used for the Eμ-Myc-Tigar^−/− cohort (FIG. 19, panel f). All other cohorts received the previously published “Diet 1” formulations.
Mus Musculus cohorts were housed in a barriered facility proactive in environmental enrichment. The Eμ-Myc11, ApcMin/+, Lgr5creER; Apcf1/f1 and Pdx1cre; KrasG12D; Trp53f1/+ or Trp53R172H/+ mice/models have been previously described. Mixed male and female populations were used for each genotype. […] Eμ-Myc, and ApcMin/+ mice were at least 20 generations C57BL/6J. Eμ-Myc; Tigarf1/f1 mice were at least 50% C57BL/6J. Mice were put on the appropriate diet at the following times: Eμ-Myc pure bred 60 days post-natal, Eμ-Myc; Tigarf1/f1 55 days post-natal, ApcMin/+80 days post-natal, Lgr5creER; Apcf1/f1 7 days post-induction, Pdx1cre; KrasG12D; Trp53f1/+ or Trp53R172H/+60 days post-natal. […] For the metformin experiment, ApcMin/+ mice were given 200 mg/kg/day in their drinking water, starting 4 days after the diet change. All mice were taken to clinical end-point. Intestines from ApcMin/+ mice were fixed in methacarn (4:2:1 ratio of methanol, chloroform, acetic acid) to facilitate scoring of tumour number and area (width×length).
Samples were prepared in cold (−20° C.) lysis solvent (LS) consisting of methanol, acetonitrile, and H2O (50:30:20). […] Tissue samples were snap frozen and stored at −80° C. Prior to lysis, frozen samples were weighed then homogenized in 1 ml cold LS using a Precellys homogeniser (Bertin Technologies). Lysates were cleared of protein by centrifugation and lysate concentrations were normalized post-homogenisation with LS based on weight. Extracts were analysed on an LCMS platform consisting of an Accela 600 LC system and an Exactive mass spectrometer (Thermo Scientific). A SeQuant ZIC-pHILIC column (2.1 mm×150 mm, 5 μm) (Merck) was used to separate the metabolites with the mobile phase mixed by A=Ammonium carbonate 20 mM (adjusted to pH 9.4) and B=Acetonitrile. A gradient program starting at 20% of A and after 2 mins linearly increasing to 80% at 17 min was used followed by washing and re-equilibration steps. The total run time of the method was 25 min. The LC stream was desolvated and ionised in the HESI probe. The Exactive mass spectrometer was operated in full scan mode over a mass range of 75-1,000 m/z at a resolution of 50,000 with polarity switching. The raw data was analysed by LCquan (Thermo Scientific) and MZMine 2.10 for metabolite identification and quantification.
Mus Musculus cohorts were housed in a barrier facility proactive in environmental enrichment. […] Mixed male and female populations were used for each genotype.
In data set [5] the test system is DLD1 and SW480 cells. Description: Metformin in vitro assay in APC-truncated colorectal cell lines, cell number. The note with it: three days. Format: cell-based, Human. The protocol: DLD1 and SW480 cells were seeded into 24-well plates and allowed to adhere overnight. Cells were washed with PBS and received either assay medium with or without serine and glycine, with or without metformin at the stated doses and allowed to grow for three days. Representative wells were photographed using a light microscope and counted using a Casy TT cell counter (FIG. 19, panel d). For the dose-response experiment (FIG. 23, panel e) cells were seeded in the same way, either in assay medium without serine and glycine, or in assay medium with low serine and glycine (10 uM), triplicate wells were counted after three days.

Data set [6] concerns lymphoma (based on Eμ-Myc expression).
From the text: as §1
Mus Musculus cohorts were housed in a barriered facility proactive in environmental enrichment. The Eμ-Myc11, ApcMin/+, Lgr5creER; Apcf1/f1 and Pdx1cre; KrasG12D; Trp53f1/+ or Trp53R172H/+ mice/models have been previously described. Mixed male and female populations were used for each genotype. […] Eμ-Myc, and ApcMin/+ mice were at least 20 generations C57BL/6J. Eμ-Myc; Tigarf1/f1 mice were at least 50% C57BL/6J. Mice were put on the appropriate diet at the following times: Eμ-Myc pure bred 60 days post-natal, Eμ-Myc; Tigarf1/f1 55 days post-natal, ApcMin/+80 days post-natal, Lgr5creER; Apcf1/f1 7 days post-induction, Pdx1cre; KrasG12D; Trp53f1/+ or Trp53R172H/+60 days post-natal. […] For the metformin experiment, ApcMin/+ mice were given 200 mg/kg/day in their drinking water, starting 4 days after the diet change. All mice were taken to clinical end-point. […]
Samples were prepared in cold (−20° C.) lysis solvent (LS) consisting of methanol, acetonitrile, and H2O (50:30:20). […] Extracts were analysed on an LCMS platform consisting of an Accela 600 LC system and an Exactive mass spectrometer (Thermo Scientific). […] The raw data was analysed by LCquan (Thermo Scientific) and MZMine 2.10 for metabolite identification and quantification. […]
[7] abbreviates: average synergy score for three colorectal cells lines, drug at 0.01, 0.1 and 1 uM for 48 hours, low serine, glycine, cysteine (17-23 uM) vs complete medium (100 uM).

“Also recorded” adds a separate entry of the source. Structures can show the parent of a compound that is named as a salt. Where two headings read alike, the source gives them in different places.

This note sets out measurements from patent publication US12478601B2, “Dietary product devoid of at least two non essential amino acids” (CANCER RESEARCH TECHNOLOGY LIMITED, priority 2016, dated 2025).

In the case of `CN(C)C/C=C/C(=O)Nc1cc2c(Nc3ccc(F)c(Cl)c3)ncnc2cc1O[C@H]1CCOC1` [Afatinib], the “SYNERGY SCORE” value in data set [1] (setting [7]) came to 1.18.

Consider `CC(C)(C#N)c1cc(Cn2cncn2)cc(C(C)(C)C#N)c1` [Anastrozole], for which the “SYNERGY SCORE” value in data set [1] is reported as 1.43.

Turning to `COc1cc(Nc2c(C#N)cnc3cc(OCCCN4CCN(C)CC4)c(OC)cc23)c(Cl)cc1Cl` [Bosutinib], the “SYNERGY SCORE” value in data set [1] (setting [7]) was 1.95.

Consider `COc1cc2nccc(Oc3ccc(NC(=O)C4(C(=O)Nc5ccc(F)cc5)CC4)cc3)c2cc1OC` [Cabozantinib], for which the “SYNERGY SCORE” value in data set [1] (setting [7]) is listed as 4.51.

Regarding `CC(C)C[C@H](NC(=O)[C@H](CCc1ccccc1)NC(=O)CN1CCOCC1)C(=O)N[C@@H](Cc1ccccc1)C(=O)N[C@@H](CC(C)C)C(=O)[C@@]1(C)CO1` [Carfilzomib], in data set [1] (setting [7]), the “SYNERGY SCORE” value was 1.65.

For `Cc1cc(Nc2ncc(Cl)c(Nc3ccccc3S(=O)(=O)C(C)C)n2)c(OC(C)C)cc1C1CCNCC1` [Ceritinib], the “SYNERGY SCORE” value in data set [1] (setting [7]) is 2.56.

As for `N.N.[Cl][Pt][Cl]` [Cisplatin], in data set [1] (setting [7]), the “SYNERGY SCORE” value amounted to 1.79.

Take `COc1cccc2c1C(=O)c1c(O)c3c(c(O)c1C2=O)C[C@@](O)(C(C)=O)C[C@@H]3O[C@H]1C[C@H](N)[C@H](O)[C@H](C)O1` [Daunorubicin]: the “reactive oxygen species levels in tumour-organoids” value in data set [2] (with serine & glycine starvation, two days) was “increase reactive oxygen species levels”. In addition, the tumour organoid growth result in data set [3] (with serine & glycine starvation) is “complements serine and glycine starvation; also recorded: decrease tumour organoid growth”.

In the case of `COc1cccc2c1C(=O)c1c(O)c3c(c(O)c1C2=O)C[C@@](O)(C(=O)CO)C[C@@H]3O[C@H]1C[C@H](N)[C@H](O)[C@H](C)O1` [Doxorubicin hydrochloride], the “SYNERGY SCORE” value in data set [1] (setting [7]) is given as 1.76.

`COc1cccc2c1C(=O)c1c(O)c3c(c(O)c1C2=O)C[C@@](O)(C(=O)CO)C[C@@H]3O[C@H]1C[C@H](N)[C@@H](O)[C@H](C)O1` [Epirubicin hydrochloride]: the “SYNERGY SCORE” value in data set [1] (setting [7]) is 1.40.

As for `CO[C@H]1C[C@@H]2CC[C@@H](C)[C@@](O)(O2)C(=O)C(=O)N2CCCC[C@H]2C(=O)O[C@H]([C@H](C)C[C@@H]2CC[C@@H](OCCO)[C@H](OC)C2)CC(=O)[C@H](C)/C=C(\C)[C@@H](O)[C@@H](OC)C(=O)[C@H](C)C[C@H](C)/C=C/C=C/C=C/1C` [Everolimus], in data set [1] (setting [7]), the “SYNERGY SCORE” value is on record as 3.33.

On to `C=C1C[C@@H]2[C@H](CC[C@]3(C)C(=O)CC[C@@H]23)[C@@]2(C)C=CC(=O)C=C12` [Exemestane], for which the “SYNERGY SCORE” value in data set [1] (setting [7]) came out at 2.14.

For the molecule `Nc1nc(F)nc2c1ncn2[C@@H]1O[C@H](COP(=O)(O)O)[C@@H](O)[C@@H]1O` [Fludarabine phosphate], in data set [1], the “SYNERGY SCORE” value amounted to 2.76.

In the case of `CC[C@H](Nc1ncnc2[nH]cnc12)c1nc2cccc(F)c2c(=O)n1-c1ccccc1` [Idelalisib], the “SYNERGY SCORE” value in data set [1] (setting [7]) is recorded as 4.05.

With `Nc1cccc2c1CN(C1CCC(=O)NC1=O)C2=O` (centres unmarked) [Lenalidomide], in data set [1] (setting [7]), the “SYNERGY SCORE” value came to 1.94.

As for `CN(C)C(=N)N=C(N)N` [Metformin], the “metformin levels in serum and tissue” value in data set [4] (200 mg/kg/day in drinking water, LCMS) is on record as “relatively low; also recorded: too low to potentiate the anti-cancer effect”. Moreover, the average tumour area entry in data set [4] (metformin 200 mg/kg/day) is “without a substantial change in average tumour area”. The “impact on systemic metabolism (serum glucose and lactate)” value in data set [4] (metformin 200 mg/kg/day) is reported as “minimal impact on systemic metabolism; also recorded: little impact on systemic metabolism”. Further, the figures for the “reactive oxygen species (ROS) levels” value in data set [2] (high dose metformin) and in data set [2] (low dose metformin) were “increase with high dose metformin” and “decrease with low dose metformin”, respectively. Besides, in data set [5] (metformin at 20 µM), the cell number result is listed as “trend for increased cell number”. In addition, the “synergistic effect with serine/glycine starvation” value in data set [5] (metformin at concentrations found in vivo) is reported as “did not have a synergistic effect”. Also, the “SYNERGY SCORE” value in data set [1] (setting [7]) is given as 7.53. In data set [3] (low dose metformin), the “organoid growth, interaction with serine and glycine starvation” value is “antagonizes serine and glycine starvation; also recorded: did not have a synergistic effect”. Moreover, the “organoid growth, interaction with serine starvation” value in data set [3] (metformin 1000 uM) is on record as “synergise with serine starvation”.

For `O=C(c1cc(Cc2n[nH]c(=O)c3ccccc23)ccc1F)N1CCN(C(=O)C2CC2)CC1` [Olaparib], the “SYNERGY SCORE” value in data set [1] (setting [7]) is 1.46.

On to `Cc1ccc(C(=O)Nc2ccc(CN3CCN(C)CC3)c(C(F)(F)F)c2)cc1C#Cc1cnc2cccnn12` [Ponatinib], for which the “SYNERGY SCORE” value in data set [1] stood at 1.00.

On to `CNC(=O)c1cc(Oc2ccc(NC(=O)Nc3ccc(Cl)c(C(F)(F)F)c3)c(F)c2)ccn1` [Regorafenib], for which the “SYNERGY SCORE” value in data set [1] (setting [7]) stood at 2.29.

In the case of `C/C=C1\NC(=O)[C@H]2CSSCC/C=C/[C@H](CC(=O)N[C@H](C(C)C)C(=O)N2)OC(=O)[C@H](C(C)C)NC1=O` [Romidepsin], the “SYNERGY SCORE” value in data set [1] is recorded as 2.03.

Turning to `CNC(=O)c1cc(Oc2ccc(NC(=O)Nc3ccc(Cl)c(C(F)(F)F)c3)cc2)ccn1` [Sorafenib], the “SYNERGY SCORE” value in data set [1] (setting [7]) was 2.26.

Consider `CO[C@H]1C[C@@H]2CC[C@@H](C)[C@@](O)(O2)C(=O)C(=O)N2CCCC[C@H]2C(=O)O[C@H]([C@H](C)C[C@@H]2CC[C@@H](OC(=O)C(C)(CO)CO)[C@H](OC)C2)CC(=O)[C@H](C)/C=C(\C)[C@@H](O)[C@@H](OC)C(=O)[C@H](C)C[C@H](C)/C=C/C=C/C=C/1C` [Temsirolimus], for which, in data set [1] (setting [7]), the “SYNERGY SCORE” value amounted to 3.90.

In the case of `CS(=O)(=O)c1ccc(C(=O)Nc2ccc(Cl)c(-c3ccccn3)c2)c(Cl)c1` [Vismodegib], the “SYNERGY SCORE” value in data set [1] turned out to be 1.53.

For the molecule `O=C(CCCCCCC(=O)Nc1ccccc1)NO` [Vorinostat], the “SYNERGY SCORE” value in data set [1] (setting [7]) is given as 4.94.

On to `[H]/N=C(/N)N/C(=N/[H])NCCc1ccccc1` [phenformin], for which the tolerability entry in data set [6] (100 mg/kg/day by gavage, mice on normal diet) is on record as “tolerated”. Also, the “mice already recruited that did not succumb to toxicity” value in data set [6] (100 mg/kg/day with serine and glycine deficient diet) was 7/14. The “survival, diet with phenformin compared to serine and glycine free diet alone” value in data set [6] (100 mg/kg/day, not statistically significant) is “trend for improved survival”.

Take Arsenic trioxide: in data set [1], the “SYNERGY SCORE” value is given as 2.52.
